Structures are written as SMILES. Structures can show the parent of a compound that is named as a salt. Where two headings read alike, the source gives them in different places.

The assay concerns Zymosan Stimulated Macrophages (arachidonic acid release). Kind of assay: Test A: Inhibition of Arachidonic Acid Release from Zymosan Stimulated Macrophages. To be noted: read-out: Test A IC50. The class given is cell-based, mouse (female MF1 mice). On the procedure: Test A was carried out in the following way:
Inhibition of Arachidonic Acid Release from Zymosan Stimulated Macrophages
Female MF1 mice (weighing 20 to 25 g) were killed using a rising concentration of CO2. The mice were laid on their backs and the abdomens wiped with 70% alcohol. The skin was pulled back, exposing the peritoneal wall. Medium A (5 ml) (see below) was injected into the peritoneal cavity of each mouse followed by approximately 1 ml of air using a 20 ml syringe and a 21G×40 mm needle in order to form a suspension of macrophage cells. The medium and cells were then removed using a 19G×40 mm needle. The resulting suspension was returned to a sterile beaker kept on ice. The extracts from all the mice were pooled and this pooled cell suspension was counted using a Coulter counter and adjusted to a final cell count of 1-1.3×10^6 cells/ml prior to labelling with [^3 H]-arachidonic acid. Typically five mice provided sufficient cells for each multiwell plate.
Sufficient [^3 H]-arachidonic acid in ethanol to give a final concentration of 1.6 μCi/ml (equivalent to 40 μCi/plate) was blown to dryness under nitrogen. The arachidonic acid was then resuspended in 1 or 2 ml of the cell suspension which was then mixed with the remainder of the cell suspension in a centrifuge bottle. The labelled cell suspension was then plated out into sterile plastic 96 flat-bottomed well plates (250 μl per well) and incubated overnight at 37° C. in a moist atmosphere of 5% CO2, 95% air.
The following day, non-adherent cells were removed by washing 3 times with sterile phosphate buffered saline (PBS). The adherent peritoneal macrophages were then cultured for a further 24 hours in the presence or absence of drugs, in medium B (see below) at 37° in a 5% CO2 atmosphere in order to measure the effects of drugs on the spontaneous release of arachidonic acid in the absence of stimulus. After this incubation, supernatants were removed to give media 1 and stored in sealed multi-well plates at 4° C. prior to scintillation counting. Drugs which potentiated spontaneous release of arachidonic acid (125% of controls) were deemed to be toxic at the concentration at which this phenomenon occurred. The supernatants were replaced by fresh medium C containing fresh drug and a stimulus. Three drugs were tested at six concentrations (100, 50, 20, 10, 5 and 1 μM) in replicates of four on each plate. The other wells contained controls consisting of a positive control (e.g. dexamethasone), medium (B) only and medium C only.
Incubation was then continued for a further 5 hours, whereupon the supernatants were collected to give media 2 and the adherent cells washed with PBS. The cells were then lysed with 100 μl of 0.1% TRITON® X100 in a 0.1% solution of bovine serum albumin in 0.9% saline and mechanically disrupted to give cell lysates. These supernatants (media 2) and cell lysates (Cells) were also stored in sealed multi-well plates at 4° C. prior to scintillation counting. 200 μl aliquots of media, or 100 μl aliquots of cells were counted using 2 ml of OPTIPHASE "HIGH SAFE" (Trademark of LKB) as scintillant.
The percentage of arachidonic acid released was calculated using the mean values for each group of 4 wells in the following equation. [formula]
The value for the arachidonic acid release in the absence of stimulus (spontaneous, cpm of media 2) from cells which had been exposed to neither stimulus nor drug was subtracted from all equivalent values (cpm media 2, stimulated with or without drug) to give the net stimulated release. The percentage inhibition of arachidonic acid release caused by a drug may then be calculated using the following equation. [formula]
Compounds of formula I were tested at six concentrations (100, 50, 20, 10, 5 and 1 μM) and IC50 values calculated. Compounds with IC50 values≤100 μM are considered to be active. Advantageous compounds have an IC50 value<50 μM.
Medium A (for peritoneal lavage) […]

Where [1] appears, read: inhibition of arachidonic acid release, zymosan stimulated mouse peritoneal macrophages, tested at 100, 50, 20, 10, 5 and 1 μM, ≤100 μM considered active.
[2] abbreviates: Mus musculus, Macrophage, inhibition of arachidonic acid release, zymosan stimulated mouse peritoneal macrophages, tested at 100, 50, 20, 10, 5 and 1 μM, ≤100 μM considered active.

Regarding `CC(C)(NCC(O)Cn1ccnc1)c1ccc(Cl)cc1` (single isomer, unassigned; (+)) [Example 45, (+)-1-[1-(4-Chlorophenyl)-1-methylethylamino]-3-(imidazol-1-yl)propan-2-ol], under setting [1], the IC50 stood at 170 µM. As for `CC(C)(NCC(O)Cn1ccnc1)c1ccc(Cl)cc1` (single isomer, unassigned; (-)) [Example 46, (-)-1-[1-(4-Chlorophenyl)-1-methylethylamino]-3-(imidazol-1-yl)propan-2-ol], the IC50 under setting [1] came out at 80 µM.

In the case of `CCc1ccc(OCCNCCCn2ccnc2)cc1` [Example 5, N-[2-(4-Ethylphenoxy)ethyl]-3-(imidazol-1-yl)propylamine], the IC50 under setting [2] was determined as 17 µM.

As for `Cc1ccc(OCCNCCCn2ccnc2)cc1C` [Example 6, N-[2-(3,4-Dimethylphenoxy)ethyl]-3-(imidazol-1-yl)propylamine], the IC50 under setting [2] was found to be 20 µM. With `Clc1ccc(OCCCNCCCn2ccnc2)cc1` [Example 9, 3-(4-Chlorophenoxy)-3'-(imidazol-1-yl)dipropylamine], the IC50 under setting [2] is 50 µM. Still for that read-out and setting: then `c1ccc(COc2ccc(OCCNCCCn3ccnc3)cc2)cc1` [Example 10, N-[2-(4-Benzyloxyphenoxy)ethyl]-3-(imidazol-1-yl)propylamine dihydrochloride hydrate], with 36 µM; and `Clc1ccc(SCCNCCCn2ccnc2)cc1` [Example 11, N-[2-(4-Chlorophenylthio)ethyl]-3-(imidazol-1-yl)propylamine], with 37 µM. On the same count and under the same terms, then `Cc1nccn1CCCNCCCc1ccc(Cl)cc1` [Example 12, 3-(4-Chlorophenyl)-3'-(2-methylimidazol-1-yl)dipropylamine], with 7 µM. With `CC(C)(CNCCCn1ccnc1)c1ccc(Cl)cc1` [Example 13, 2-(4-Chlorophenyl)-3'-(imidazol-1-yl)-2-methyldipropylamine dihydrochloride], under setting [2], the IC50 is 9 µM. Still for that read-out and setting: then `Clc1ccc(CCCNCCCn2ccnc2)cc1` [Example 14, 3-(4-Chlorophenyl)-3'-(imidazol-1-yl)dipropylamine], with 6 µM; and `CC(C)(CNCCCn1ccnc1)Sc1ccc(Cl)cc1` [Example 18, 2-(4-Chlorophenylthio)-3'-(imidazol-1-yl)-2-methyldipropylamine dihydrochloride], with 20 µM.

With `Cc1cc(SCC(C)(C)NCCCn2ccnc2)c(C)cc1Cl` [Example 20, N-[2-(4-Chloro-2,5-xylylthio)-1,1-dimethylethyl]-3-(imidazol-1-yl)propylamine dihydrochloride], the IC50 under setting [2] was 4 µM. Take `CC(C)(Cc1ccc(Cl)cc1)NCCCn1ccnc1` [Example 21, N-[2-(4-Chlorophenyl)-1,1-dimethylethyl]-3-(imidazol-1-yl)propylamine dihydrochloride]: under “Mus musculus, Macrophage”, the IC50 is 8 µM. For `CC(C)(NCCCn1cnc(CCN)c1)c1ccc(Cl)cc1` [Example 22, 3-[4-(2-Aminoethyl)imidazol-1-yl]-N-[1-(4-chlorophenyl)-1-methylethyl]propylamine trihydrochloride], the IC50 under setting [2] was 26 µM. Turning to `CC(C)(NCCCn1ccnc1C(O)c1ccccc1)c1ccc(Cl)cc1` (stereo not drawn) [Example 23, α-(1-{3-[1-(4-Chlorophenyl)-1-methylethylamino]propyl}-imidazol-2-yl)benzyl alcohol], the IC50 under setting [2] came out at 7 µM.

For the molecule `Cc1ccc(S(=O)(=O)Cc2ccc(C(C)(C)NCCCn3ccnc3)cc2)cc1C` [Example 24, 3-(imidazol-1-yl)-N-{1-methyl-1-[4-(3,4-xylylsulphonylmethyl)phenyl]ethyl}propylamine dihydrochloride hydrate], the IC50 under setting [2] was determined as 22 µM. Still for that read-out and setting: the value for `CCCCCCS(=O)(=O)Cc1ccc(C(C)(C)NCCCn2ccnc2)cc1` [Example 25, N-(1-[4-(Hexylsulphonylmethyl)phenyl]-1-methylethyl)-3-(imidazol-1-yl)propylamine dihydrochloride] was 11 µM; that for `CCCN(CCC)S(=O)(=O)c1ccc(C(C)(C)NCCCn2ccnc2)cc1` [Example 26, 4-{1-[3-(Imidazol-1-yl)propylamino]-1-methylethyl}-N,N-dipropylbenzenesulphonamide] was 10 µM. Still for that read-out and setting: the value for `CC(C)(NCCCn1ccnc1)c1ccc(CCOCc2ccccc2)cc1` [Example 27, N-{1-[4-(2-Benzyloxyethyl)phenyl]-1-methylethyl}-3-(imidazol-1-yl)propylamine] was 70 µM; that for `CC(C)(NCCCn1ccnc1)c1ccc(C(=O)NC2CCCCC2)cc1` [Example 28, N-Cyclohexyl-4-{1-[3-(imidazol-1-yl)propylamino]-1-methylethyl}benzamide] was 25 µM. As for `CC(C)(NCCCn1ccnc1)c1ccc(CC(=O)NCc2ccc(Cl)cc2)cc1` [Example 30, N-(4-Chlorobenzyl)-4-{1-[3-(imidazol-1-yl)propylamino]-1-methylethyl}phenylacetamide], under setting [2], the IC50 is 20 µM. The same measure, in the same setting: the value for `N#Cc1ccc(OCCNCCCn2ccnc2)cc1` [Example 31, 4-{2-[3-(Imidazol-1-yl)propylamino]ethoxy}benzonitrile sesquihydrochloride] was 74 µM.

Turning to `Clc1ccc(C2(CCNCCCn3ccnc3)OCCO2)cc1` [Example 32, N-{2-[2-(4-Chlorophenyl)-1,3-dioxolan-2-yl]ethyl}-3-(imidazol-1-yl)propylamine], the IC50 under setting [2] amounted to 9 µM. As to `CSc1ccc(OCC(C)(C)NCCCn2ccnc2)cc1` [Example 33, N-[1,1-Dimethyl-2-(4-methylthiophenoxy)ethyl]-3-(imidazol-1-yl)propylamine dihydrochloride hydrate], the IC50 under setting [2] was 32 µM.

Consider `CCCC(CCC)(NCCCn1ccnc1)c1ccc(CC(=O)NC)cc1` [Example 34, 4-{1-[3-(Imidazol-1-yl)propylamino]-1-propylbutyl)phenyl-N-methylacetamide], for which the IC50 under setting [2] was 76 µM. For `CC(C)(COc1ccccc1)NCCCn1ccnc1` [Example 35, 3-(Imidazol-1-yl)-N-(1,1-dimethyl-2-phenoxyethyl) propylamine], the IC50 under setting [2] was 47 µM. Still for that read-out and setting: the value for `COc1ccccc1CCC(C)(C)NCCCn1ccnc1` [Example 36, 3'-(Imidazol-1-yl)-3-(2-methoxyphenyl)-1,1-dimethyldipropylamine] was 60 µM; that for `CC(C)(NCCCn1ccnc1)c1ccc(CC(=O)NC2CCCCCC2)cc1` [Example 37, N-Cycloheptyl-4-{1-[3-(imidazol-1-yl)propylamino]-1-methylethyl}phenylacetamide] was 49 µM. With `CC(C)(COc1ccc(C(F)(F)F)cc1)NCCCn1ccnc1` [Example 39, N-{2-[4-(Trifluoromethyl)phenoxy]-1,1-dimethylethyl}-3-(imidazol-1-yl)propylamine dimaleate], the IC50 under setting [2] worked out at 0.2 µM. For `CC(C)(COc1ccc(F)cc1)NCCCn1ccnc1` [Example 40, N-[2-(4-Fluorophenoxy)-1,1-dimethylethyl]-3-(imidazol-1-yl)propylamine dimaleate hemihydrate], the IC50 under setting [2] was 0.3 µM.

With `CCC(CC)(CO)c1ccc(C(C)(C)NCCCn2ccnc2)cc1` [Example 41, 2-Ethyl-2(4-{1-[3-(imidazol-1-yl)propylamino]-1-methylethyl}phenyl)butan-1-ol], the IC50 under setting [2] turned out to be 10 µM.

`COc1ccc(S(=O)(=O)NCCc2ccc(C(C)(C)NCCCn3ccnc3)cc2)cc1` [Example 42, N-[2-(4-{1-[3-(Imidazol-1-yl)propylamino]-1-methylethyl}phenyl)ethyl]-4-methoxybenzenesulphonamide]: the IC50 under setting [2] was 9 µM.

Broadly, the IC50 is the concentration at which inhibition is half-maximal.
